Results published in ChEMBL document CHEMBL1133819, “Structure-based design of caspase-1 inhibitor containing a diphenyl ether sulfonamide” (Bioorg Med Chem Lett, 2001).

Tests used:
Caspase-1 [1] = target: T1, Caspase-1 (Homo sapiens, UniProt P29466); assay: Inhibitory concentration against caspase-1 was determined
T1 sequence (P29466 whole entry): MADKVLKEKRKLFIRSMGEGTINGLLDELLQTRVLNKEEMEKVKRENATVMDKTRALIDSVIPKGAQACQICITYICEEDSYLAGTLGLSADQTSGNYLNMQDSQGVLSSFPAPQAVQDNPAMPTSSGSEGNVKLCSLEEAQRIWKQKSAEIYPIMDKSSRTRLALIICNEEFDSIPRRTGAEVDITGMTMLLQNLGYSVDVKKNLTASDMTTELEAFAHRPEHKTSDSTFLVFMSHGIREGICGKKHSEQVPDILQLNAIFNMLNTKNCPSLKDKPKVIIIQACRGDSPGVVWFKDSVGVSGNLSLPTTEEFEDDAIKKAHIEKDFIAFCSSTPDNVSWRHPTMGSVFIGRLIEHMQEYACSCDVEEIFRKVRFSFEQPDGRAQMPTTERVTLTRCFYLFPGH

Caspase-1 [2] = target: T1, Caspase-1; assay: Binding affinity towards caspase-1 was determined

IC50 (Caspase-1 [1]) [nM]	Ki (Caspase-1 [2]) [nM]	SMILES
7800	450	Cc1cc(Oc2ccccc2S(=O)(=O)N[C@H](C=O)C(=O)O)cc(C)c1C
11000	430	Cc1cccc(Oc2ccccc2S(=O)(=O)N[C@H](C=O)C(=O)O)c1
4300	900	O=C[C@@H](NS(=O)(=O)c1ccccc1Oc1ccc(C2CCCCC2)cc1)C(=O)O
13000	1000	Cc1cccc(Oc2ccccc2S(=O)(=O)N[C@H](C=O)C(=O)O)c1C
3500	440	CCC(CC)c1ccc(Oc2ccccc2S(=O)(=O)N[C@H](C=O)C(=O)O)cc1
4400	290	O=C[C@@H](NS(=O)(=O)c1ccccc1Oc1ccc(-c2ccccc2)cc1)C(=O)O
24000	24000	O=C[C@@H](NS(=O)(=O)c1ccccc1Oc1ccccc1)C(=O)O
20000	1600	O=C[C@@H](NS(=O)(=O)c1ccccc1-c1ccccc1)C(=O)O
9000	1100	Cc1ccc(Oc2ccccc2S(=O)(=O)N[C@H](C=O)C(=O)O)cc1
14000	3000	Cc1ccccc1Oc1ccccc1S(=O)(=O)N[C@H](C=O)C(=O)O
2200	490	CCC(C)c1ccc(Oc2ccccc2S(=O)(=O)N[C@H](C=O)C(=O)O)cc1 (some centres undefined)
3700	410	CC(C)c1cccc(Oc2ccccc2S(=O)(=O)N[C@H](C=O)C(=O)O)c1
5300	620	CC(C)c1ccc(Oc2ccccc2S(=O)(=O)N[C@H](C=O)C(=O)O)cc1
1000	110	Cc1cc(Oc2ccccc2S(=O)(=O)N[C@H](C=O)C(=O)O)ccc1C(C)C
4800	880	O=C[C@@H](NS(=O)(=O)c1ccccc1Oc1ccc(C2CCCC2)cc1)C(=O)O
1000	100	CCC(C)c1ccc(Oc2ccccc2S(=O)(=O)N[C@H](C=O)C(=O)O)cc1C (some centres undefined)
58000	4200	O=C[C@@H](NS(=O)(=O)c1ccccc1Oc1ccc(-c2ccc(C(=O)O)cc2)cc1)C(=O)O
